In patent US7670785B2, “Polynucleotides and polypeptides associated with the development of rheumatoid arthritis” (Bristol-Myers Squibb Company, priority 2001, dated 2010):

Columns and labels:
[1] = system: GBP-1; experiment: LPS-induced GBP-1 mRNA in THP-1 monocytes, real time PCR; type: cell-based, human; settings: THP-1, LPS 100 ng/ml, 2 hour stimulation
Experimental: (§1) For real time PCR analyses, THP-1 cells (10^7/group) were cultured at 10^6/ml in RPMI containing 10% heat inactivated fetal calf serum, 2 mM L-glutamine with either medium, BMS-205820 (2 uM), or dexamethasone (100 nM) for 30 minutes at 37° C. in 5% CO2. LPS was added to each group (100 ng/ml), and the incubation continued for 0.5-8 hr. At the end of each time point, cells were pelleted, washed one time with 10 ml PBS, and stored at −80° C.
(§2) Total RNA was isolated from cells using the RNeasy® Kit from Qiagen (Valencia, Calif.), including the on-the-column DNase digestion procedure. RNA quality and quantity were evaluated using UV spectrometry. Total RNA was used for first-strand cDNA synthesis using the SuperScript™ First-Strand Synthesis System for RT-PCR (Invitrogen, Carlsbad, Calif.) following the manufacturer's instructions with 50 ng of random hexamers.
(§3) Reactions were performed in a total volume of 40 μl. The master mix contained SYBR Green I Dye, 50 mM Tris-HCl pH8.3, 75 mM KCl, DMSO, Rox reference dye, 5 mM MgCl2, 2 mM dNTP, Platinum Taq High Fidelity (1 U/reaction), and 0.5 μM of each primer. Eight microliters of diluted cDNA was used in each PCR reaction. […]
(§4) A relative value for the initial target concentration in each reaction was determined using the TaqMan 5700 software. […]

[2] = system: GBP-5; experiment: LPS-induced GBP-5 mRNA in THP-1 monocytes, real time PCR; type: cell-based, human; settings: THP-1, LPS 100 ng/ml, 2 hour stimulation
Experimental: as §1, §2, §3, §4

[3] = system: GBP-1; experiment: GBP-1 mRNA in resting and stimulated THP-1 monocytes, microarray; type: cell-based, human; settings: IFN-γ 100 U/ml, TNFα 10 ng/ml, LPS 100 ng/ml, FIG. 92A
Experimental: (§5) For the microarray analyses, THP-1 cells (10^7/group) were cultured at 10^6/ml as above for 1, 6, 24, or 48 hours with either medium, TNFα (10 ng/ml), IFN-γ(100 U/ml), or LPS (100 ng/ml). At each time point, mRNA was isolated, labeled, and used to probe Affymetrix HG_U95Av2, HG_U95B, and HG_U95C chips.

[4] = system: GBP-5; experiment: GBP-5 mRNA in resting and stimulated THP-1 monocytes, microarray; type: cell-based, human; settings: IFN-γ 100 U/ml, TNFα 10 ng/ml, LPS 100 ng/ml, FIG. 92B
Experimental: as §5

[5] = system: GBP-1; experiment: GBP-1 expression in stimulated human microvascular endothelial cells, microarray; type: cell-based; settings: three donors, TNFα 10, IL-1β 10, VEGF 30, bFGF 10 ng/ml, FIG. 93A
Experimental: (§6) Human microvascular endothelial cells from three different donors were obtained from Clonetics (Walkersville, Md.), and cultured in EGM-2 medium (Clonetics). Cells were cultured in 100 mm dishes coated with mouse type IV collagen and allowed to grow to approximately 80% confluency. The cells were then stimulated for 1, 6, or 24 hours with either medium, TNFα (10 ng/ml), or IL-1β (10 ng/ml). At each time point, mRNA was isolated, labeled and used to probe Affymetrix HG_U95Av2 and HG_U95B chips.
(§7) For VEGF and bFGF stimulations, microvascular endothelial cells from three independent donors were obtained, cultured in 100 mm dishes coated with mouse type IV collagen and allowed to grow to 30% confluency. At this time, the media was replaced with DMEM containing 2% fetal calf serum, and the cells were cultured an additional day. The cells were stimulated for 1, 6, or 24 hours with either medium, VEGF (30 ng/ml) or bFGF (10 ng/ml). At each time point, mRNA was isolated, labeled, and used to probe Affymetrix chips as described above.

[6] = system: Fc gamma RI; settings: RA patients, monocytes; cited from earlier work
[7] = system: GBP-5; experiment: GBP-5 expression in stimulated human microvascular endothelial cells, microarray; type: cell-based; settings: for donors whose cells upregulated GBP-5 mRNA: human microvascular endothelial cells from three donors; for induction of GBP-5: human microvascular endothelial cells, three donors, TNFα 10, IL-1β 10 ng/ml, FIG. 93B
Experimental: as §6, §7

[8] = system: GBP-1; experiment: GBP-1 mRNA in stimulated synovial fibroblasts from rheumatoid arthritis patients, microarray; type: cell-based, human; settings: RA synovial fibroblasts; TNFα, IL-1α, IL-17 10 ng/ml, IL-17b-Ig 5 ng/ml; FIG. 94A
Experimental: Synovial fibroblasts were obtained from Cell Applications, Inc. (San Diego, Calif.), and cultured for 1, 6, or 24 hours with either medium, TNFα (10 ng/ml), IL-1α (10 ng/ml, Peprotech), IL-17 (10 ng/ml, R&D Systems, Minneapolis, Minn.), or IL-17b-Ig fusion protein (5 ng/ml). The IL-17b protein was produced by fusing the full length IL-17b sequence (Shi et al., J. Biol. Chem. 275:19167-19176 (2000)) to the human IgG1 Fc region. At each time point, mRNA was isolated, labeled, and used to probe Affymetrix HG_U95Av2, HG_U95B, HG_U95C, HG_U95D, and HG_U95E chips.

[9] = system: mouse GBP-1; experiment: GBP-1 mRNA in stimulated mouse fibroblasts, real time PCR; type: cell-based; settings: 2 or 8 hours, TNFα 10 ng/ml or PMA 10 ng/ml, FIG. 90A
Experimental: (§8) Wild type 3T3 fibroblasts and immortalized fibroblast lines derived from p65 and IkBα germline knockouts were cultured in DMEM with 10% calf serum, glutamax and penicillin/streptomycin. Primary embryonic fibroblasts derived from germline knockouts of relB and p50 were cultured in DMEM with 10% fetal calf serum, glutamax and penicillin/streptomycin. The fibroblasts were plated at 5×10^5/well of a 6 well plate and cultured overnight at 37° C. in 5% CO2. Cells were stimulated for 2 or 8 hours with either medium, human TNFα (10 ng/ml) or PMA (10 ng/ml). At each time point, cells were harvested using trypsin/EDTA, washed one time with PBS, and stored at −80° C.
as §2
(§9) Reactions were performed in a total volume of 40 μl. […]
as §4

[10] = system: GBP-5; experiment: GBP-5 mRNA in stimulated mouse fibroblasts, real time PCR; type: cell-based; settings: 2 or 8 hours, TNFα 10 ng/ml or PMA 10 ng/ml, FIG. 90B
Experimental: as §8, §2, §9, §4

[11] = system: IL-1; settings: RA patients; cited from earlier work
[12] = biological target: T1, TNF-α (Homo sapiens, UniProt P01375); settings: cited from earlier work
T1 construct: host or cells: RA patients (in vivo)
T1 sequence (P01375 77-233 limits assumed): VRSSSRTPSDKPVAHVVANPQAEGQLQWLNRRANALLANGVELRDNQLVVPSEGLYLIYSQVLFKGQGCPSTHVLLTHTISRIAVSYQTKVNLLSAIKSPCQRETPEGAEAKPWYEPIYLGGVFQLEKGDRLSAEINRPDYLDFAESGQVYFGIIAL

[13] = biological target: T2, IL-15 (Mus musculus, UniProt P48346); settings: administration to mice; cited from earlier work
T2 construct: host or cells: mice (collagen-induced arthritis model)
T2 sequence (P48346 49-162): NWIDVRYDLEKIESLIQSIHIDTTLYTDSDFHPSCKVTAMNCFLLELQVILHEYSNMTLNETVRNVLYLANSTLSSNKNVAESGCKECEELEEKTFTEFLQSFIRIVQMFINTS

## lipopolysaccharide [LPS, reference compound]
[1]
  steady-state mRNA level of GBP-1: significantly increased
[2]
  steady-state mRNA level of GBP-5: significantly increased
[3]
  steady state level of GBP-1 mRNA: Much lower levels of expression were induced
[4]
  steady state level of GBP-5 mRNA: Much lower levels of expression were induced

## basic FGF: growth factor used as stimulus of endothelial cells
[5]
  GBP-1 expression: No induction

## C[C@]12C=CC(=O)C=C1CC[C@@H]1[C@@H]2[C@@H](O)C[C@@]2(C)[C@H]1CC[C@]2(O)C(=O)CO [prednisolone]
[6]
  Fc gamma RI expression: induced down-regulation

## VEGF
[5]
  GBP-1 expression: No induction

## IL-1β: cytokine used as stimulus of endothelial cells
[5]
  GBP-1 expression: strongly induced
[7]
  donors whose cells upregulated GBP-5 mRNA: Only one donor
  induction of GBP-5: variable

## IL-17: cytokine used as stimulus of synovial fibroblasts (R&D Systems)
[8]
  GBP-1 mRNA induction: not

## TNFα
[9]
  steady-state level of GBP-1 mRNA: induced increased steady-state levels
[10]
  steady-state level of GBP-5 mRNA: induced increased steady-state levels
[3]
  steady state level of GBP-1 mRNA: Much lower levels of expression were induced
[4]
  steady state level of GBP-5 mRNA: Much lower levels of expression were induced
[5]
  GBP-1 expression: strongly induced
[7]
  donors whose cells upregulated GBP-5 mRNA: two out of three
  induction of GBP-5: variable
[8]
  GBP-1 mRNA induction: induced at 1 and 6 hours

## interferon-γ: cytokine used as stimulus of THP-1 monocytes
[3]
  steady state level of GBP-1 mRNA: strongly induced
[4]
  steady state level of GBP-5 mRNA: strongly induced

## IL-1Ra: natural inhibitor of IL-1, recombinant human IL-1 receptor antagonist
[11]
  clinical symptoms and rate of progressive joint damage: significantly reduced

## Etanercept
[12]; RA patients
  number of swollen joints: significant decrease
  numbers of T cells and plasma cells in the synovium: significant decrease
[12]; treated patients
  expression of VCAM-1 and IL-1 in the synovium: decrease

## CCCCCCCCCCCCCC(=O)O[C@@H]1[C@@H](C)[C@@]2(O)[C@@H](C=C(CO)C[C@]3(O)C(=O)C(C)=C[C@@H]23)[C@@H]2C(C)(C)[C@]12OC(C)=O [PMA, reference compound]
[10]
  steady-state level of GBP-5 mRNA: not

B1: soluble IL-15 receptor alpha chain: soluble IL-15 receptor alpha chain administered to mice (protein, UniProt Q60819 33-205, looked up)
extracellular domain: GTTCPPPVSIEHADIRVKNYSVNSRERYVCNSGFKRKAGTSTLIECVINKNTNVAHWTTPSLKCIRDPSLAHYSPVPTVVTPKVTSQPESPSPSAKEPEAFSPKSDTAMTTETAIMPGSRLTPSQTTSAGTTGTGSHKSSRAPSLAATMTLEPTASTSLRITEISPHSSKMTK
modifications: extracellular domain
notes: soluble IL-15 receptor alpha chain administered to mice
[13]
  collagen-induced arthritis: prevented

B2: IL-17b: full length IL-17b sequence fused to the human IgG1 Fc region (protein)
chain: QPRSPKSKRKGQGRPGPLAPGPHQVPLDLVSRMKPYARMEEYERNIEEMVAQLRNSSELAQRKCEVNLQLWMSNKRSLSPWGYSINHDPSRIPVDLPEARCLCLGCVNPFTMQEDRSMVSVPVFSQVPVRRRLCPPPPRTGPCRQRAVMETIAVGCTCIF
[8]
  GBP-1 mRNA induction: not

B3: IL-1a: cytokine used as stimulus of synovial fibroblasts (Peprotech) (protein, UniProt P01583 113-271, looked up)
Interleukin-1 alpha: SAPFSFLSNVKYNFMRIIKYEFILNDALNQSIIRANDQYLTAAALHNLDEAVKFDMGAYKSSKDDAKITVILRISKTQLYVTAQDEDQPVLLKEMPEIPKTITGSETNLLFFWETHGTKNYFTSVAHPNLFIATKQDYWVCLAGGPPSITDFQILENQA
[8]
  GBP-1 mRNA induction: induced at 1 and 6 hours
